The record followed here is BindingDB's records for doi:10.1021/acs.jmedchem.2c01229 (University of Siena, 2023).

The test is described as follows: Inhibition of SARS-CoV-1 RdRp-mediated viral replication.

Molecules are shown by their SMILES. pIC50: −log10 of the molar value.

Regarding `CN(C)CCCSc1ccccc1NC(=O)/C=C/c1ccccc1` [CINANSERIN], the pIC50 (as a rule, the IC50 on a negative log10 scale, so that one unit is a factor of ten) is 4.47.
